Values quoted from earlier work, collected in patent publication US20040048919A1, “Compositions and methods for reduction of inflammatory symptoms and/or biomarkers in female subjects” (priority 2002, published 2004).

Conditions: 3.6 gm DHA per day (50x average dietary intake)

CC/C=C\C/C=C\C/C=C\C/C=C\C/C=C\C/C=C\CCC(=O)O [DHA, all-cis 4,7, 10, 13, 16, 19-docosahexaenoic acid]
toxicities on ingestion by humans: no apparent toxicities
